# Counter-ions that a name gives are not always drawn. Peptide text beside a SMILES is read from it. * marks the point of attachment. Cbz = O=C(OCc1ccccc1)*
# System: PRKACA-PRKAR2A interaction (SmBiT-PRKACA / LgBiT-PRKAR2A), protein kinase A
# Set-up: NanoLuc complementation counter-screen in cell extract, PRKACA with PRKAR2A, loss of luminescence, detects NanoLuc interference
# Settings: counter-screen for NanoLuc interference, 0.5 h, 20 µM, inhibitor, Inh (PKA)
row,SMILES,Inh (PKA) [%]
1,"O=c1c(O)c(-c2ccc(O)c(O)c2)oc2cc(O)cc(O)c12 [UM0133552:02, Quercetin dihydrate]",33.9
2,"CN(c1ncccc1CNc1nc(Nc2ccc3c(c2)CC(=O)N3)ncc1C(F)(F)F)S(C)(=O)=O [UM0142004:01, PF-562271 HCl]",48.82
3,"Cn1c(=O)cc(N2CCC[C@@H](N)C2)n(Cc2ccccc2C#N)c1=O [UM0141514:01, Alogliptin Benzoate]",3.371
4,"CC(C)Cc1ccc([C@@H](C)C(=O)NS(C)(=O)=O)cc1 [UM0141612:01, Reparixin]",5.153
5,"Cc1cc(Nc2cc(N3CCN(C)CC3)nc(/C=C/c3ccccc3)n2)n[nH]1 [UM0141724:01, ENMD-2076 L-(+)-Tartaric acid]",17.98
6,"CCOC(=O)[C@H](C)C[C@@H](Cc1ccc(-c2ccccc2)cc1)NC(=O)CCC(=O)O [UM0142501:01, AHU-377 hemicalcium salt]",0.8137
7,"COc1ccc(S(=O)(=O)N(CCO)c2ccccc2CN(C)C/C=C/c2ccc(Cl)cc2)cc1 [UM0141574:01, KN-93]",44.92
8,"Cc1cccc(-c2[nH]c(C(C)(C)C)nc2-c2ccc3c(c2)OCO3)n1 [UM0127976:02, SB-505124 hydrochloride]",12.14
9,"CNC(=O)c1cc(Oc2ccc(NC(=O)Nc3ccc(Cl)c(C(F)(F)F)c3)c(F)c2)ccn1 [UM0141611:02, Regorafenib]",5.988
10,"CN1CCN(c2ccc3nc(-c4c(N)c5c(F)cccc5[nH]c4=O)[nH]c3c2)CC1 [UM0142034:01, Dovitinib Dilactic acid]",16.9

# Same assay, conditions: counter-screen for NanoLuc interference; 0.5 h, 20 µM; inhibitor
row,SMILES,Inh (PKA) [%]
1,"CO/N=C(\C(=O)N[C@@H]1C(=O)N2C(C(=O)O)=C(CSc3nc(=O)c(O)nn3C)CS[C@H]12)c1csc(N)n1 [UM0142345:01, Ceftriaxone Sodium Trihydrate]",3.455
2,"CC1(C)CCC(c2ccc(Cl)cc2)=C(CN2CCN(c3ccc(C(=O)NS(=O)(=O)c4ccc(N[C@H](CCN5CCOCC5)CSc5ccccc5)c(S(=O)(=O)C(F)(F)F)c4)cc3)CC2)C1 [UM0141497:01, ABT-263 (Navitoclax)]",-0.2397
3,"CC1(C)CC(=O)c2c(C(F)(F)F)nn(-c3ccc(C(N)=O)c(N[C@H]4CC[C@H](OC(=O)CN)CC4)c3)c2C1 [UM0141688:01, PF-04929113 (SNX-5422)]",8.876
4,"O=C(/C=C/c1ccc(O)c(O)c1)OCCc1ccccc1 [UM0133732:02, Caffeic Acid Phenethyl Ester]",43.72
5,"CN1CCC(COc2cnc(-c3cccc(Cn4nc(-c5cccc(C#N)c5)ccc4=O)c3)nc2)CC1 [UM0141548:01, EMD-1214063]",7.378
6,"CNc1ncc2cc(-c3cc(NC(=O)NCCC(C)(C)C)c(F)cc3C)c(C)nc2n1 [UM0142127:01, LY3009120]",13.32
7,"C#C[C@]1(O)C=C[C@H]2[C@@H]3CCC4=CC(=O)CC[C@@H]4[C@H]3CC[C@@]21CC [UM0142288:01, Gestodene]",7.119
8,"Cc1c(-c2ccnn2C)cc(C(=O)NCc2ccc(S(C)(=O)=O)cn2)c(=O)n1-c1cccc(C(F)(F)F)c1 [UM0142161:01, Alvelestat]",0.5125
9,"Nc1ccccc1NC(=O)c1ccc(CNC(=O)OCc2cccnc2)cc1 [UM0141929:01, Entinostat (MS-275,SNDX-275)]",3.043
10,"Cc1cc(Nc2ccc(NC(=O)c3ccc(Nc4ccnc5ccccc45)cc3)cc2)nc(N)n1 [UM0142330:01, SGI-1027]",9.462
11,"CN(C)CCCN1c2ccccc2Sc2ccc(Cl)cc21 [UM0118114:03, Chlorpromazine HCl]",15.72
12,"Oc1c(Cl)cc(Cl)c(Cl)c1Cc1c(O)c(Cl)cc(Cl)c1Cl [UM0121388:04, Hexachlorophene]",52.78
13,"O=C(/C=C/c1ccc(CN(CCO)CCc2c[nH]c3ccccc23)cc1)NO [UM0141707:01, LAQ824 (NVP-LAQ824,Dacinostat)]",3.4
14,"COc1ccc(-c2ccc3ncc4c(c3c2)n(-c2ccc(N3CCNCC3)c(C(F)(F)F)c2)c(=O)n4C)cn1 [UM0142062:01, NVP-BGT226]",19.52
15,"COCCCOc1ccnc(C[S+]([O-])c2nc3ccccc3[nH]2)c1C (stereo not shown) [UM0142515:01, Rabeprazole]",0.62
16,"Cc1cc(-c2ncc(CC(=O)Nc3ccc(-c4cnccn4)cn3)cc2C)ccn1 [UM0142488:01, LGK-974]",0.7443
17,"O=C(NNc1nc2cc(F)ccc2n2cccc12)c1cnccn1 [UM0141448:01, SC 144]",4.683
18,"CCN(CC)CCOc1ccc(C(=C(Cl)c2ccccc2)c2ccccc2)cc1 [UM0132668:02, Clomiphene citrate]",14.01
19,"COC(=O)C[C@H](NC(=O)[C@@H](NC(=O)c1ccc2ccccc2n1)C(C)C)C(=O)COc1c(F)cccc1F [UM0141924:01, Q-VD(OMe)-OPh]",13.3
20,"CC(=O)Oc1ccccc1C(=O)O [UM0119503:03, Aspirin (Acetylsalicylic acid)]",1.275
21,"O=c1c(O)c(-c2cc(O)c(O)c(O)c2)oc2cc(O)cc(O)c12 [UM0133944:02, Myricetin]",47.98
22,"Cc1cccc(C)c1OCC(=O)N[C@@H](Cc1ccccc1)[C@@H](O)C[C@H](Cc1ccccc1)NC(=O)[C@H](C(C)C)N1CCCNC1=O [UM0141948:01, Lopinavir]",17.52
23,"O=C1CN(/N=C/c2ccc(-c3ccc([N+](=O)[O-])cc3)o2)C(=O)N1 [UM0134180:02, Dantrolene, sodium salt]",25.72
24,"CC(C)C[C@@H](C=O)NC(=O)[C@H](CC(C)C)NC(=O)[C@H](CC(C)C)NC(=O)OCc1ccccc1 [UM0141471:01, MG-132] (Cbz-Leu-Leu-Leu-aldehyde)",6.639
25,"C[C@]12CCC3=C4CCC(=O)C=C4CC[C@H]3[C@@H]1CC[C@@]2(O)CC#N [UM0142287:01, Dienogest]",-0.135
26,"O=C(Nc1cccc(Cl)c1)Nc1ncc(CCNc2ncnc3ccsc23)s1 [UM0141718:01, SNS-314 Mesylate]",29.21

row,SMILES,Inh (PKA) [%]
1,"Cc1c(-c2c(-c3ccc(F)o3)sc3ncnc(O[C@H](Cc4ccccc4OCc4ccnn4CC(F)(F)F)C(=O)O)c23)ccc(OCCN2CCN(C)CC2)c1Cl [UM0142131:01, S63845]",20.59
2,"CCOC(=O)[C@H](CCc1ccccc1)N[C@@H](C)C(=O)N1CCC[C@H]1C(=O)O [UM0132889:02, Enalapril Maleate]",-0.0661
3,"COc1cc2c(NC3CCN(C(C)C)CC3)nc(N3CCC(F)(F)CC3)nc2cc1OCCCN1CCCC1 [UM0142799:01, UNC 0642]",0.7014
4,"COc1ccccc1N1CCN(CCN(C(=O)C2CCCCC2)c2ccccn2)CC1 [UM0134420:02, WAY-100635 maleate salt]",1.248
5,"O=C(Nc1c[nH]nc1-c1nc2ccc(CN3CCOCC3)cc2[nH]1)NC1CC1 [UM0141714:01, AT9283]",10.96
6,"N[C@@H]1CCCN(c2c(/C=C3\SC(=O)NC3=O)cccc2-c2ccccc2)C1 [UM0141655:01, AZD1208]",21.79
7,"FC(F)c1nc2ccccc2n1-c1nc(N2CCOCC2)nc(N2CCOCC2)n1 [UM0141969:01, ZSTK474]",3.548
8,"Cc1snnc1-c1ccccc1 [UM0142838:01, 4-phenyl-5-methyl-1,2,3-Thiadiazole]",0.1553
9,"COc1ccc(C(CN(C)C)C2(O)CCCCC2)cc1 (stereo not shown) [UM0141884:01, Venlafaxine]",-0.1027
10,"CN1C/C(=C/c2ccc(B(O)O)cc2)C(=O)/C(=C\c2ccc(B(O)O)cc2)C1 [UM0141922:01, AM 114]",1.277
11,"O=C(/C=C\n1cnc(-c2cc(C(F)(F)F)cc(C(F)(F)F)c2)n1)N1CC(F)(F)C1 [UM0142267:01, KPT-276]",9.545
12,"CCOc1cc2ncc(C#N)c(Nc3ccc(OCc4ccccn4)c(Cl)c3)c2cc1NC(=O)/C=C/CN(C)C [UM0141987:01, Neratinib (HKI-272)]",9.342
13,"C=CC[C@@H]1/C=C(\C)C[C@H](C)C[C@H](OC)[C@H]2O[C@@](O)(C(=O)C(=O)N3CCCC[C@H]3C(=O)O[C@H](/C(C)=C/[C@@H]3CC[C@@H](O)[C@H](OC)C3)[C@H](C)[C@@H](O)CC1=O)[C@H](C)C[C@@H]2OC [UM0132999:02, Tacrolimus (FK506)]",15.44
14,"NC(=O)Nc1sc(-c2ccc(F)cc2)cc1C(N)=O [UM0127870:03, TPCA-1]",19.86
15,"C=CC(=O)Nc1cc(Nc2nccc(-c3c[nH]c4ccccc34)n2)c(OC)cc1N(C)CCN(C)C [UM0142657:01, AZ5104]",4.603
16,"NS(=O)(=O)NCCNc1nonc1/C(=N/O)Nc1ccc(F)c(Br)c1 [UM0141562:02, INCB-024360]",8.041
17,"CC(C)(C)c1cc(C(=O)/C(C#N)=N/Nc2cccc(Cl)c2)no1 [UM0055456:02, ESI-09]",77.71
18,"COc1cc(CCc2cc(NC(=O)c3ccc(N4C[C@@H](C)N[C@@H](C)C4)cc3)n[nH]2)cc(OC)c1 [UM0142009:01, AZD4547]",12.3
19,"CCCOc1ccc(CCc2nc3cc(-c4c(C)noc4C)ccc3n2CCN2CCOCC2)cc1 [UM0142766:01, PF-CBP1]",9.037
20,"CC(C)c1cc(CNc2nc(Nc3cc(C4CC4)[nH]n3)cc(N3CCN(C)CC3)n2)on1 [UM0141649:01, XL228]",43.07
21,"c1ccc2c(Cc3c[nH]c4ccccc34)c[nH]c2c1 [UM0119470:03, 3,3'-Diindolylmethane]",34.9
22,"COc1cc2nccc(Oc3ccc(NC(=O)Nc4ccc(F)cc4F)c(F)c3)c2cc1OC [UM0131001:04, Ki8751]",5.997
23,"CC(C)Oc1ccc(-c2nc(-c3cccc4c3CC[C@@H]4NCCO)no2)cc1C#N [UM0142722:01, Ozanimod (RPC1063)]",8.033
24,"Cc1c(OCC(F)(F)F)ccnc1C[S+]([O-])c1nc2ccccc2[nH]1 (stereo not shown) [UM0118982:03, Lansoprazole]",1.885
25,"COc1cc2c(Oc3ccc4[nH]c(C)cc4c3F)ncnc2cc1OCCCN1CCCC1 [UM0141418:01, Cediranib (AZD217)]",13.87

# Source: PMC9995496, “A screen for MeCP2-TBL1 interaction inhibitors using a luminescence-based assay” (Scientific Reports, 2023)
